These are literature values, as cited in patent publication EP2484728B1, “Ink composition, ink set, and image forming method” (Fujifilm Corporation, priority 2011, dated 2012).

For the data set the following is noted: 25°C; Polymer Handbook values, otherwise calculated by the Fedors method.
Take POP (8) glyceryl ether: the SP value is given as 22.1 (MPa)^1/2.
Regarding “Pentaoxyethylene pentaoxypropylene butyl ether”, the SP value is recorded as 18.8 (MPa)^1/2.
As to “Dioxyethylene dioxypropylene butyl ether”, the SP value is 20.1 (MPa)^1/2.
As to POE (40) diglyceryl ether, the SP value is recorded as 21.0 (MPa)^1/2.
In the case of “Dodecaoxyethylene dodecaoxypropylene butyl ether”, the SP value is 18.8 (MPa)^1/2.
On to `COC(C)COC(C)CO` (centres unmarked) [Dipropylene glycol monomethyl ether], for which the SP value is reported as 21.3 (MPa)^1/2.
In the case of `CCCCC(O)CO` (centres unmarked) [1,2-Hexanediol], the SP value is 24.1 (MPa)^1/2.
On to `CC(O)COC(C)COC(C)COC(C)COC(C)COC(C)COC(C)CO` (centres unmarked) [Heptapropylene glycol], for which the SP value was 21.2 (MPa)^1/2.
Take POP (16) glyceryl ether: the SP value is listed as 20.2 (MPa)^1/2.
Turning to POP (4) diglyceryl ether, the SP value is 26.1 (MPa)^1/2.
As to `CCCCOCCOCCOCCO` [Triethylene glycol monobutyl ether], the SP value is given as 21.1 (MPa)^1/2.
`CC(O)COC(C)COC(C)CO` (centres unmarked) [Tripropylene glycol]: the SP value is listed as 24.7 (MPa)^1/2.
As for `OCCOCCO` [DEG, Diethylene glycol], the SP value entry is recorded as “DEG (30.6) (MPa)^1/2”.
As for `CCOCC(C)O` (centres unmarked) [Propylene glycol monoethyl ether], the SP value is on record as 22.3 (MPa)^1/2.
On to POP (3) glycerylether, for which the SP value is recorded as 26. 4 (MPa)^1/2.
Consider `OCC(O)CO` [glycerin], for which the SP value entry is recorded as “glycerin (33.5) (MPa)^1/2”.
As for POP (10) glyceryl ether, the SP value is listed as 21.4 (MPa)^1/2.
Regarding POP (7) glyceryl ether, the SP value is 22.6 (MPa)^1/2.
Regarding `COC(C)COC(C)COC(C)CO` (centres unmarked) [Tripropylene glycol monomethyl ether], the SP value is listed as 20.4 (MPa)^1/2.
Take POP (9) diglyceryl ether: the SP value is 22.7 (MPa)^1/2.
Take “Decaoxyethylene heptaoxypropylene butyl ether”: the SP value is 18.8 (MPa)^1/2.
Take POP (9) glyceryl ether: the SP value was 21.7 (MPa)^1/2.
Take POP (4) glyceryl ether: the SP value is 24.9 (MPa)^1/2.
On to “Pentacosaoxyethylene triacontaoxypropylene butyl ether”, for which the SP value was 18.8 (MPa)^1/2.
Consider `COCCOCCO` [Diethylene glycol monomethyl ether], for which the SP value is listed as 22.4 (MPa)^1/2.
With `COCCOCCOCCO` [Triethylene glycol monomethyl ether], the SP value is 22.1 (MPa)^1/2.
For POE (20) diglyceryl ether, the SP value was 22.4 (MPa)^1/2.
POP (5) glyceryl ether: the SP value is recorded as 23.9 (MPa)^1/2.
POP (6) glyceryl ether: the SP value is 23. 2 (MPa)^1/2.
Turning to “Decaoxyethylene triacontaoxypropylene butyl ether”, the SP value is on record as 18.7 (MPa)^1/2.
Turning to `CCOCCOCCOCCO` [Triethylene glycol monoethyl ether], the SP value is given as 21.7 (MPa)^1/2.
Take `CCCCOCCOCCO` [Diethylene glycol monobutyl ether]: the SP value is listed as 21.5 (MPa)^1/2.
